Test results: patent publication US20050096381A1, “Derivatives of isoflavones” (YEDA & MEDICAL RESEARCH, priority 2002, published 2005)
“Also recorded” adds a separate entry of the source. Like-named read-outs stand apart in the source and are kept apart here.

Experiments:
[1] = system: E304 endothelial cells (expressing mainly ERα); assay: DNA synthesis by [3H]-thymidine incorporation in E304 cells; type: cell-based, human
Experimental: E304 cells, expressing mainly ERα, an endothelial cell line derived from a human umbilical vein, were purchased from American Type Culture Collection (ATCC), Rockville, Md., and grown in medium 199 containing 10% FCS, glutamine and antibiotics.
(§1) Assessment of DNA synthesis was performed by [^3H]-thymidine incorporation in these cells. Cells were grown until subconfluence and then treated with various hormones or agents as indicated. Forty-eight hours later, [^3H] thymidine was added for two hours. Cells were then treated with 10% ice-cold trichloroacetic (TCA) for 5 min and washed twice with 5% TCA and then with cold ethanol. The cellular layer was dissolved in 0.3 ml of 0.3M NaOH, samples were taken and [^3H] thymidine incorporation into DNA was determined. The concentration of hormone to produce half-maximal induction (EC50) or inhibition (IC50) was calculated from the dose response curves.
(§2) In the second phase the cytotoxicity of isoflavone-daunomycin conjugates was tested after 48 h of incubation in normal cells [VSMC, E304, non transformed enterocytes (TEC)] and malignant cells [human adrenocortical carcinoma (NCI-H295R), human colon cancer cells (colo320) and c-K-ras transformed rat enterocytes (R1)] using uptake of [^3H]-thymidine as a proliferation marker.

[2] = system: human adrenocortical carcinoma cells (NCI-H295R); assay: cells; type: cell-based; details: for IC50: read-out: concentration required for 50% inhibition of DNA synthesis (IC50), NCI-H295R
Experimental: These cells were purchased from ATTC (Rockville, Md.) and grown in Dulbecco's modified Eagle's medium containing antibiotics.
as §1, §2

[3] = system: human colon cancer cells (colo320); assay: DNA synthesis by [3H]-thymidine incorporation in colo320 cells; type: cell-based
Experimental: These cells were purchased from ATTC (Rockville, Md.) and grown in RPMI medium containing 20 mM HEPES and 10% fetal calf serum.
as §1, §2

[4] = system: human vascular smooth muscle cells (VSMC), expressing mainly ERβ; assay: cells; type: cell-based
Experimental: Human umbilical artery smooth muscle cells, expressing mainly ERβ, were prepared as previously described with minor modifications (Somjen D. et al. 1998 Hypertension 32:39-45). In brief, umbilical cords were collected shortly after delivery. The umbilical arteries were isolated by dissection, cleaned of blood and adventitia and then cut into tiny slices (1-3 mm). The segments were kept in culture in medium 199 containing 20% FCS, glutamine and antibiotics. […] Cells were fed twice a week and, upon confluence, trypsinized and transferred to 24-well dishes. Cells were used only at passages 1-3 when expression of smooth muscle actin was clearly demonstrable.
as §1, §2

[5] = system: c-K-ras transformed rat enterocytes (R1); assay: cells; type: cell-based; details: read-out: concentration required for 50% inhibition of DNA synthesis (IC50), R1
Experimental: (§3) Cell lines were obtained from Prof. N. Arber, Ichilov Hospital, Tel-Aviv, Israel and grown as described previously (Arber N et al. 1996 Oncogene 12:1903-1908).
as §1, §2

[6] = system: nontransformed rat enterocytes (IEC); assay: cells; type: cell-based; details: read-out: concentration required for 50% inhibition of DNA synthesis (IC50), IEC
Experimental: as §3, §1, §2

Recombinant ERα protein = target: T1, Recombinant ERα protein (Homo sapiens, UniProt P03372); assay: Estrogen receptor-binding assay, [3H]-17β-estradiol displacement, ERα; details: result in words
T1 sequence (P03372 1-595): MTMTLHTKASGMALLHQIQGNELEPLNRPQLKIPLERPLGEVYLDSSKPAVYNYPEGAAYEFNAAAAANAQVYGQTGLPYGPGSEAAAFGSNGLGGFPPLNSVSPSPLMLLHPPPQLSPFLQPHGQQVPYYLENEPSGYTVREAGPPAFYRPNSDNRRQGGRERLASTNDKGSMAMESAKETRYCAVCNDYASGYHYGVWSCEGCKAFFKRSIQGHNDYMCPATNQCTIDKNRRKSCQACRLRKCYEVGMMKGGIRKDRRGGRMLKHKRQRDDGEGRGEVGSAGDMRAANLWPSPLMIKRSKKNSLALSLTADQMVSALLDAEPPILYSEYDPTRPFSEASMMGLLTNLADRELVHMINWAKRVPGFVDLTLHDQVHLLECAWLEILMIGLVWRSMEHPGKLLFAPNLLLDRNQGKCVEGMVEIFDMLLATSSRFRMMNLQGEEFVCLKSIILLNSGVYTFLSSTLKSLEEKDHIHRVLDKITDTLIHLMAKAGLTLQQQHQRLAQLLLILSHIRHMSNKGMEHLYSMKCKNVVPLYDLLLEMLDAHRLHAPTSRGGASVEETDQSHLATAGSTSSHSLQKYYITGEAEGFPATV
Experimental: (§4) Biotinylated anti-ER antibody (α or β, prepared as described in Strasburger C J & Kohen F 1990 Methods Enzymol. 184:481-496), 100 ng/well in 100 μl of binding buffer, was added to each well, and the reaction mixtures were incubated with shaking for 2 h and 30 min at room temperature. The reaction mixtures were then decanted, and each well was washed once with binding buffer. Dilute sodium hydroxide (0.1 N, 300 μl) was added to each well. After shaking for 20 min, an aliquot (200 μl) was removed from each well and added to a vial containing scintillation fluid. The vials were then counted for radioactivity in a beta scintillation counter.

Recombinant ERβ protein = Recombinant ERβ protein (Homo sapiens, UniProt Q92731); assay: Estrogen receptor-binding assay, [3H]-17β-estradiol displacement, ERβ; details: for binding activity to ERβ: result in words
Chain of Recombinant ERβ protein (Q92731 whole entry, species assumed): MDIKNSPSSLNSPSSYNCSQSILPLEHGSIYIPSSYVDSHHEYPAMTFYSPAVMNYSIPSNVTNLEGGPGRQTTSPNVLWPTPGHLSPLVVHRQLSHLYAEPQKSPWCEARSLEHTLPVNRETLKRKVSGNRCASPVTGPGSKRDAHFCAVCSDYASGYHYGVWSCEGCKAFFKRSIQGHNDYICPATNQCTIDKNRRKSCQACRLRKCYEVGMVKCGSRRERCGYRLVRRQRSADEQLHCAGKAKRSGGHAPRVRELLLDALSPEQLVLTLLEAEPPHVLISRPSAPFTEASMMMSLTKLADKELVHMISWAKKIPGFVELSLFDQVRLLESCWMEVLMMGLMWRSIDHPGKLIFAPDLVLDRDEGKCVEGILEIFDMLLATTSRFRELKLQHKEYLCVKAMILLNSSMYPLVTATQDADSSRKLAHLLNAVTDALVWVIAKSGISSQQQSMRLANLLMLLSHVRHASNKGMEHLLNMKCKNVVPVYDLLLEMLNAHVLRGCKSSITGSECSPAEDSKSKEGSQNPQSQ
Experimental: as §4

[7] = system: creatine kinase (CK) specific activity, an estrogen responsive enzyme; assay: Stimulation of the specific activity of creatine kinase (CK) in rat tissues in vivo; details: for CK specific activity (experimental/control), aorta: Ao; for CK specific activity (experimental/control), aorta / CK specific activity (experimental/control), diaphysis / CK specific activity (experimental/control), epiphysis / CK specific activity (experimental/control), left ventricle of the heart / CK specific activity (experimental/control), pituitary / CK specific activity (experimental/control), uterus: immature female rats, i.p., 24 h, mean ± SD, n = 5, control = 1.0; for CK specific activity (experimental/control), diaphysis: Dia; for CK specific activity (experimental/control), epiphysis: Epi; for CK specific activity (experimental/control), left ventricle of the heart: LV; for CK specific activity (experimental/control), pituitary: Pi; for CK specific activity (experimental/control), uterus: Ut; for effect on CK specific activity in rat tissues (in words): uterus, pituitary, epiphysis, diaphysis, aorta, left ventricle
Experimental: The ability of the isoflavone derivatives to bind estrogen receptor and/or to modulate estrogen receptor response may be examined by any assay known in the art. A convenient assay described herein as a non-limiting example utilizes the specific activity of creatine kinase (CK), an estrogen responsive enzyme, as a parameter for the estrogen-like activity of the isoflavone derivatives of the present invention.
The rats were killed by decapitation 24 h after i.p. injection. The various organs were removed and stored at −20° C. until processed for CK activity as previously described (Somjen D. et al. 1998 Hypertension 32:39-45).

[8] = 48 h incubation, read-out: concentration required for 50% inhibition of DNA synthesis (IC50), E304
[9] = 48 h incubation, [3H]-thymidine
[10] = 48 h incubation, [3H]-thymidine, read-out: concentration required for 50% inhibition of DNA synthesis (IC50), VSMC

Compound	IC50 [1, 8] [nM]	binding activity to ERα (Recombinant ERα protein)	binding activity to ERβ (Recombinant ERβ protein)	CK specific activity (experimental/control), aorta [7]	CK specific activity (experimental/control), diaphysis [7]	CK specific activity (experimental/control), epiphysis [7]	CK specific activity (experimental/control), left ventricle of the heart [7]	CK specific activity (experimental/control), pituitary [7]	CK specific activity (experimental/control), uterus [7]	effect on CK specific activity in rat tissues (in words) [7]	further results
6-carboxymethyl biochanin A daunomycin conjugate [Cbio-daunomycin]	5										IC50 [2, 9]: 60 nM; IC50 ([3]; 48 h incubation, [3H]-thymidine, read-out: concentration required for 50% inhibition of DNA synthesis (IC50), Colo320): 40 nM
6-carboxymethyl genistein daunomycin conjugate [Cgen-daunomycin]	60										IC50 ([4]; 48 h incubation, [3H]-thymidine, listed as 6-carboxymethyl genistein daunomycin conjugate, read-out: concentration required for 50% inhibition of DNA synthesis (IC50), VSMC): 20 nM; IC50 [4, 10]: 12 nM; IC50 [2]: 16 nM; IC50 [5]: 70 nM; IC50 [6]: 2000 nM
7-(O)-carboxymethyl daidzein-daunomycin conjugate [Cdaid-daunomycin]											IC50 [4, 10]: 22 nM; IC50 ([2]; 48 h incubation, [3H]-thymidine, listed as 7-(O)-carboxymethyl daidzein-daunomycin conjugate): 7 nM; IC50 [2, 9]: 6 nM
COc1ccc(-c2coc3cc(O)c(CC(=O)O)c(O)c3c2=O)cc1 [6-carboxymethyl biochanin A]		did not show any significant binding activity	did not show any significant binding activity	1.63 ± 0.11	1.51 ± 0.05	1.61 ± 0.17	1.91 ± 0.16	1.54 ± 0.05	0.89 ± 0.12	increased the CK specific activity in all the rat tissues with the exception of the uterus; also recorded: caused an increase in CK activity in rat tissues	stimulatory response of E2 to CK specific activity on combination with E2 (in words) ([7]; rats treated with E2 plus compound): inhibited in all the tissues
O=C(O)Cc1c(O)cc2occ(-c3ccc(O)cc3)c(=O)c2c1O [6-carboxymethyl genistein]										caused an increase in CK activity in rat tissues	IC50 (Recombinant ERβ protein; recombinant ERβ, [3H]-17β-estradiol 3 nM, read-out: inhibition of binding of [3H]-estradiol to ERβ, relative binding affinity values (IC50)): 200 nM; EC50 ([4]; Homo sapiens, VSMC, [3H]-thymidine incorporation, read-out: induced proliferation, EC50 in VSMC): 3 nM; EC50 ([2]; Homo sapiens, NCI-H295R, [3H]-thymidine incorporation, read-out: induced proliferation, EC50 in NCI-H295R): 2 nM
O=C(O)COc1ccc2c(=O)c(-c3ccc(O)cc3)coc2c1 [7-(O)-carboxymethyl daidzein]		did not show any significant binding activity	did not show any significant binding activity								
COc1ccc(-c2coc3cc(O)cc(O)c3c2=O)cc1 [Biochanin A, biochanin A]		did not show any significant binding activity	did not show any significant binding activity	2 ± 0.18	1.9 ± 0.23	2.38 ± 0.18	1.42 ± 0.04	1.58 ± 0.05	1.42 ± 0.13	stimulated the CK specific activity in all the rat tissues	
O=c1c(-c2ccc(O)cc2)coc2cc(O)ccc12 [Daidzein, reference compound]		did not show any significant binding activity	did not show any significant binding activity								
COc1cccc2c1C(=O)c1c(O)c3c(c(O)c1C2=O)C[C@@](O)(C(C)=O)C[C@@H]3O[C@H]1C[C@H](N)[C@H](O)[C@H](C)O1 [Daunomycin, daunomycin, reference compound]	300										IC50 ([1]; read-out: concentration required for 50% inhibition of DNA synthesis (IC50), E304, 48 h incubation): 800 nM; IC50 ([4]; Homo sapiens, VSMC, read-out: concentration required for 50% inhibition of DNA synthesis (IC50), VSMC, 48 h incubation, [3H]-thymidine): 700 nM; IC50 ([4]; read-out: concentration required for 50% inhibition of DNA synthesis (IC50), VSMC, 48 h incubation, [3H]-thymidine): 650 nM; IC50 ([5]; Rattus norvegicus): 850 nM; IC50 ([6]; Rattus norvegicus): 550 nM; IC50 ([3]; Homo sapiens, COLO 320, read-out: concentration required for 50% inhibition of DNA synthesis (IC50), Colo320): 300 nM
C[C@]12CC[C@@H]3c4ccc(O)cc4CC[C@H]3[C@@H]1CC[C@@H]2O [Estradiol, 17β-estradiol]				2.43 ± 0.06	2.75 ± 0.23	1.85 ± 0.16	1.53 ± 0.13	1.45 ± 0.05	1.49 ± 0.13	stimulated the CK specific activity in all the rat tissues	
